Experimental data taken from patent US8734852B2, “Parenteral controlled release formulations of NSAID's” (priority 2011, dated 2014).

Assays:
[1] = test system: Acute Lumbago patients; test: Randomized comparative open labeled multicentric trial in Acute Lumbago (Phase III, 300 patients); type: in vivo, human; details: at 8 hrs, 24 hrs and after 48 hrs of treatment; p<0.05
[2] = cited from earlier work
[3] = aqueous formulation; cited from earlier work
[4] = target: COX-I (Homo sapiens, UniProt P23219); details: oral form; cited from earlier work
[5] = test system: interleukin1b-induced prostaglandin E2 production; details: cited from earlier work
[6] = upon dissolution in solvents; cited from earlier work

COX-I, sequence (P23219 24-599): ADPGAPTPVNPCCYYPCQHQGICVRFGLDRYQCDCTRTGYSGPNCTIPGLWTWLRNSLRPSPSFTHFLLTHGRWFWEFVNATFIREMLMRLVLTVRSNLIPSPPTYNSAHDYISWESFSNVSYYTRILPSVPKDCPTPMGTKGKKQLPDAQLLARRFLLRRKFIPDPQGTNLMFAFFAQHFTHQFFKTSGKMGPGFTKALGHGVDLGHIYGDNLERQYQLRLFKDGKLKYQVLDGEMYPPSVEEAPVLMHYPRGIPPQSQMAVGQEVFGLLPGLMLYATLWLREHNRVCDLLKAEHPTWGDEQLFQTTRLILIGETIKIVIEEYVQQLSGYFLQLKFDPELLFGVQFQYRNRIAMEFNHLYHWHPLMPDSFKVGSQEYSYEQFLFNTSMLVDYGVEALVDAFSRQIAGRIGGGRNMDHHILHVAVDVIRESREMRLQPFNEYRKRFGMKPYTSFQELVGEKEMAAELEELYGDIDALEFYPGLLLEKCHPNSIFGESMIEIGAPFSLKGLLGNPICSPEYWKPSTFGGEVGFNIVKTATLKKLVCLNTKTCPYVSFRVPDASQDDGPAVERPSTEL

| SMILES | modified Schober's test improvement [1] | solubility in water [2] | retention of drug inside body [3] | COX-I inhibitor effect [4] | interleukin1b-induced prostaglandin E2 production [5] | conversion into diclofenac [6] |
| --- | --- | --- | --- | --- | --- | --- |
| O=C(O)Cc1ccccc1Nc1c(Cl)cccc1Cl [Diclofenac] | progressive improvements | soluble in water | ≤ 8 h | – | – | – |
| O=C(O)COC(=O)Cc1ccccc1Nc1c(Cl)cccc1Cl [Aceclofenac] | – | water insoluble | – | poor COX-I inhibitor effect | inhibits | immediately upon dissolution in most of the solvents |
